Measured values published in a melting point compilation (Tetko et al.).

| Structure (SMILES) | melting point [°C] |
| --- | --- |
| O=C1c2ccccc2S(=O)(=O)N1Br | 160 to 170 |
| O=C1NC(=S)NC(=O)C1=NNc1ccc(Cl)cc1 | 300 |
| Cc1noc(-c2ccc(CBr)cc2)n1 | 114 to 116 |
| CCCCCCCCCCCCCCCCCCOP1OCC2(CO1)COP(OCCCCCCCCCCCCCCCCCC)OC2 (stereo not given) | 41.5 |
| COc1cc(-c2nnc3n2N=C(C(C)C)CS3)cc(OC)c1OC | 157 |
| CCCCCCCCc1ccc(/N=N/c2ccc(OC(=O)CCCCCCC)cc2)cc1 | 58 to 63 |
| C=COCC(C)C | -112 |
| Cc1cc(C)nc(NN)n1 | 166 to 167 |
| O=C(CC(C(=O)c1ccccc1)C(CC(=O)c1ccccc1)C(=O)c1ccccc1)c1ccccc1 (stereo not given) | 169 |
| C[Si](C)(C)OC1(C#N)c2ccccc2CCc2ccccc2C1(C#N)O[Si](C)(C)C (stereo not given) | 88 |
| C#CC1(O)CCC2C3CCC4=CC(O)CCC4(C)C3CCC21C (stereo not given) | 204 |
| O=CC(F)(F)C(F)(F)C(F)(F)C(F)(F)C(F)(F)C(F)(F)C(F)(F)C(F)(F)C=O | 68 to 70.5 |
| Oc1c(Cl)cc(Cl)cc1Br | 68 |
| CCOC(=O)NC(C)(C)Cc1ccc(Cl)cc1 | 52.8 |
| Cc1c(Br)cc(N)c(N)c1C | 70 to 74 |
| S=C=Nc1ccc(OCc2ccccc2)cc1 | 64 |
| N#CCc1nc(-c2ccccc2)cs1 | 59 to 60 |
| Oc1ccccc1/C=N/n1c(-c2ccccc2)n[nH]c1=S | 209 to 210 |
| Cc1ccc(C)c(C#N)c1 | 13 to 14 |
| Cc1ccc(F)c(CO)c1Cl | 69 |
| CN(C)C(=S)Sc1ccc([N+](=O)[O-])cc1[N+](=O)[O-] | 152 |

| Structure (SMILES) | melting point [°C] |
| --- | --- |
| Nc1c(Br)cc(Br)cc1C(O)c1ccccc1 (stereo not given) | 152 |
| CCOC(=O)C1=C(C)Nc2ccccc2S1 | 143 |
| COc1ccc2c(c1O)-c1c3c(cc4c1C(C2)N(C)CC4)OCO3 (stereo not given) | 200 |
| O=[N+]([O-])c1cc([N+](=O)[O-])c(C=Nc2ccccc2)cc1C=Nc1ccccc1 | 165 |
| C=CCCCC=C | -129 |
| O=Cc1ccc(C#Cc2ccccc2)s1 | 91 |
| CSc1ccc(CO)cc1 | 42 |
| CON=C(C(=O)OC)c1ccccc1COc1ccccc1C | 102 |
| Cc1cc(C(F)(F)F)n2nc(N)c(/N=N/c3ccc(Cl)cc3)c2n1 | 250 |
| c1cc2ccc3cccc4ccc(c1)c2c34 | 153 |
| CN(C)c1nnc(Br)c(-c2nc(N(C)C)nnc2Br)n1 | 123 |
| O=C1NC(=S)NC(=O)C1=Cc1ccc(-c2ccc(Cl)cc2)o1 | 280 |
| O=[N+]([O-])c1cccnc1N1CCN(CCO)CC1 | 82 to 83 |
| O=[N+]([O-])c1ccc(C2Nn3c(nnc3-c3cccc([N+](=O)[O-])c3)S2)cc1 (stereo not given) | 205 |
| Oc1c(Cl)cc(F)cc1Cl | 49 to 52 |
| Clc1ccc(I)cc1Cl | 30 |
| Nc1cccc(C=CC(=O)c2ccccc2)c1 | 159 |
| Cc1cc(N)n(-c2ccccc2)n1 | 116 |
| Cc1ccc(C(c2ccc(C)o2)c2cc(Cl)ccc2O)o1 | 85 |
| O=S(=O)(O)CC(O)CN(CCO)CCO (stereo not given) | 189 to 192 |
| N#CC(=Cc1ccccc1)C(N)=O | 155 |

| Structure (SMILES) | melting point [°C] |
| --- | --- |
| CCCCCCc1ccc2c(c1)CCC2 | -34 |
| c1ccc2cc3c(cc2c1)nnc1ncnn13 | 198 to 202 |
| N#CCc1ccccc1Br | 19 |
| CC(CO)c1c(O)c(O)c2c(c1O)C(=O)C(=O)C1C2(C)CCC(O)C1(C)C (stereo not given) | 214 to 216 |
| Nc1ccc2c3c(cccc13)C(=O)NC2=O | 360 |
| FC(F)(F)c1ccc(Cl)c(C(F)(F)F)c1 | -59 |
| CCCCNC(=O)OCC#CI | 66 |
| CC(Oc1ccc(Oc2ccc(Cl)cc2Cl)cc1)C(=O)O (stereo not given) | 120 |
| Clc1nncc2ccccc12 | 111 |
| COc1nc(C)nc(NC(=O)NS(=O)(=O)c2ccccc2Cl)n1 | 176 |
| C=C[Si](C)(C)O[Si](C)(C)C=C | -99.7 |
| C=COCCCC | -92 |
| Cc1ccn(-c2ccccc2)n1 | 37 |
| O=C1CCc2cc(Br)ccc2C1 | 70 to 76 |
| COC1=C(OC)C(C(COS(=O)(=O)c2ccc(C)cc2)OS(=O)(=O)c2ccc(C)cc2)OC1=O (stereo not given) | 144 to 146 |
| CC(NC(=O)CCCCN1C(=O)c2ccccc2C1=O)[P+]([O-])(Oc1ccccc1)Oc1ccccc1 (stereo not given) | 144 |
| CC(C)[C@H](N)C(O)(c1ccccc1)c1ccccc1 | 92 |
| COP(=S)(OC)Oc1nc(Cl)c(Cl)cc1Cl | 46 |
| O=C(Nc1ccc([N+](=O)[O-])cc1)C(F)(F)C(F)(F)C(F)(F)C(F)(F)C(F)(F)C(F)(F)C(F)(F)C(F)(F)F | 119 |
| CN(C)C1C(=O)C(=C(N)O)C(=O)C2(O)C(=O)C3=C(O)c4c(O)cccc4C(C)(O)C3C(O)C12 (stereo not given) | 121 |
| O=Cc1ccsc1 | -30 |

Further lines, results first:

| melting point [°C] | Structure (SMILES) |
| --- | --- |
| 254 | O=C(O)c1cccnc1Br |
| 244 | O=C(O)c1cccc(C(=O)O)c1O |
| 80 to 83 | OCc1cccnc1N1CCOCC1 |
| 74 to 75 | CCCCNC(=O)NCCCC |
| 71.5 | CC(/N=N/c1cc(Cl)cc(Cl)c1O)=C(\Cl)C(=O)OCCOCCOCCCl |
| 165 to 167 | Cc1nn(C)c2sc(C(=O)Cl)cc12 |
| 128 to 130 | COc1ccc(CC(=O)O)cc1O |
| 180 | O=C1C=C2CC3(O)COc4c(ccc(O)c4O)C3=C2C=C1O (stereo not given) |
| 238 | NC(=O)C#CC(N)=O |
| 135 to 140 | OC1(c2ccc(Cl)c(C(F)(F)F)c2)CCNCC1 |
| 75 to 76 | Brc1ccc(N2CCCCC2)cc1 |
| 253 | N[C@@H](Cc1ccc(F)cc1)C(=O)O |
| 185 to 187 | CC(C)(C)OC(=O)NC1(C(=O)O)CCc2ccccc2C1 (stereo not given) |
| 89 to 91 | CC(=O)CS(=O)(=O)c1ccc(Cl)cc1 |
| 109 | CC(C)(C)OC(=O)NC(Cc1ccc(OCc2ccccc2)cc1)C(=O)O (stereo not given) |
| 312 | O=C(O)[C@H]1CC[C@H](C(=O)O)CC1 |
| 162 to 165 | CC12CCC(O)CC1=CCC1C2CCC2(C)C1CCC2(O)C#Cc1ccccc1 (stereo not given) |
| 150 | O=C(/C(=N/Nc1cccnc1)C(=O)C(F)(F)F)c1cccs1 |
| 132 | CC(=O)N1CCC(C(=O)Cl)CC1 |
| 143 | O=C(O)C=Cc1ccco1 |
| 165 to 167 | CC12CCC(/C(=C/Nc3ccccc3)C1=O)C2(C)C (stereo not given) |

| melting point [°C] | Structure (SMILES) |
| --- | --- |
| 191 to 193 | CC(=O)NC(Cc1ccc(Br)cc1)C(=O)O (stereo not given) |
| 102 to 103 | CC12CCC(/C(=C/N(Cl)c3ccccc3)C1=O)C2(C)C (stereo not given) |
| 50 to 53 | O=[N+]([O-])c1cccc(OCCN2CCOCC2)c1 |
| 76 | C=C1C(=O)OC2CC3(C)CCCC(C)C3=CC12 (stereo not given) |
| -19 | C1CCCCNCCC1 |
| 190 | C#CC1=C(C=NNc2ccc([N+](=O)[O-])cc2[N+](=O)[O-])CCCC1 |
| 133 | CCOC(=O)c1cc2c(s1)Sc1[nH]c(C(=O)OCC)c(N)c1C2c1ccccc1 (stereo not given) |
| 232 | O=c1cc(CN2CCOCC2)c2cc(O)c(O)cc2o1 |
| 229 | CC12CCCC1C1CCC(CC(=O)O)C(C)(CC(=O)O)C1CC2 (stereo not given) |
| 157 to 164 | Cc1ccccc1CC(NC(=O)OCC1c2ccccc2-c2ccccc21)C(=O)O (racemic) |
| 20 | OC1CCCC1C1CCCC1 (stereo not given) |
| 65 | CCOC(=O)COC(=O)c1cc(Oc2ccc(C(F)(F)F)cc2Cl)ccc1[N+](=O)[O-] |
| 86 | CC(CCC(=O)O)n1nnc2ccccc21 (stereo not given) |
| 198 | Cc1ccc(C)c(C(=O)N(NC(=O)c2ccccc2)C(C)(C)C)c1 |
| 190 | CC1(C)C2CCC1(C)C(/N=C(\C(=O)c1ccccc1)c1ccccc1)C2/N=C(\C(=O)c1ccccc1)c1ccccc1 (stereo not given) |
| 133 | COC(=O)c1cc(N)cc(N)c1 |
| 205 | CC(C)(C)OC(=O)N[C@@H](CCCCN)C(=O)O |
| 47 to 51 | CC1(C)OC(CO)C(CO)O1 (single isomer, unassigned; (+)) |
| 48 | CC(C)[Si](C(C)C)(C(C)C)C1SCCCS1 |
| 202 to 204 | O=C(O)c1cccc2cc[nH]c12 |
| 155 | CCOC(=O)C(C(C)=O)C(C)C(C(C)=O)C(=O)OC1CC(C)CCC1C(C)C (stereo not given) |

| melting point [°C] | Structure (SMILES) |
| --- | --- |
| 108 | CNC(=O)NC |
| 178 | CC(C(=O)O)c1ccc(C2CCCC(=NO)C2)cc1 (stereo not given) |
| -45 | CCCCC(CC)COC(C)=O (stereo not given) |
| 45 to 48 | Cc1ccc(S(=O)(=O)OCC2CO2)cc1 (stereo not given) |
| 154 | Cn1ccc(C(=O)O)n1 |
| 93.5 | CC=CCC=CCCC(=O)C1OC1C(N)=O (stereo not given) |
| 300 | N[C@H]1CC[C@@H](C(=O)O)CC1 |
| 306 | O=C(O)c1cc(Cl)c(C(=O)O)cc1Cl |
| 165 to 168 | NNC(=O)c1ccc(Cl)c(Br)c1 |
| 176 | CC1=C(C(=O)OCc2ccccc2)C(c2cccc([N+](=O)[O-])c2)NC(=S)N1 (stereo not given) |
| 137 to 141 | CC(C)(C)[Si](C)(C)N1C(=O)C[C@@H]1C(=O)O |
| 200 | Cn1c(C(=O)O)cc2occc21 |
| 96 | O=C(O)CCCC(=O)c1cccs1 |
| 154 | CCOC(=O)c1cc(C(=O)O)c([N+](=O)[O-])cc1[N+](=O)[O-] |
| 12 | CCCC(=O)c1ccccc1 |
| 63 to 66 | CC1(C)CC(=O)C2=C(C1)OC1CCCCC21 (stereo not given) |
| 111 to 113 | CCOC(=O)c1sc(SC)c(S(C)(=O)=O)c1N |
| -40.6 | CC1CC(=O)C(C)(C)C1 (stereo not given) |
| 152 | CC(C)(C(=O)O)n1nc2ccccc2n1 |
| 41 | Cc1ccc(O)c(C(=O)C(F)(F)F)c1 |
